Test results reported in PMC10016038, “Enhanced Endosomal Signaling and Desensitization of GLP-1R vs GIPR in Pancreatic Beta Cells” (Endocrinology, 2023).

Key:
SNAP-tagged human GIPR [1] = test: RICS receptor diffusion / clustering, SNAP-GIPR; assay type: cell-based; details: 5 minutes, 100 nM; n = 4
SNAP-GIPR = test: Nb37 bystander NanoBiT, plasma membrane (CAAX), GIPR; assay type: cell-based, human; details: 30-minute AUC, n = 4
From the text: (§1) The Nb37 assay constructs were kindly provided by Prof. Asuka Inoue, Tohoku University, Japan. Nb37 (gene synthesized by GenScript with codon optimization) was C-terminally fused to SmBiT with a 15 amino acid flexible linker ([…]), and the resulting construct referred to as Nb37-SmBiT. The C-terminal KRAS CAAX motif ([…]) was N-terminally fused with LgBiT (LgBiT-CAAX). The Endofin FYVE domain (amino acid region Gln739-Lys806) was C-terminally fused with LgBiT (Endofin-LgBiT). Gαs (human, short isoform), Gβ1 (human), Gγ2 (human), and RIC8B (human, isoform 2) plasmids were inserted into pcDNA3.1 or pCAGGS expression plasmid vectors. INS-1 832/3 GLP-1R KO or GIPR KO cells were seeded in 6-well plates and co-transfected with 0.1 μg SNAP-GLP-1R or SNAP-GIPR, 0.5 μg Gαs, Gβ1, and Gγ2, 0.1 μg RIC8B, 0.1 μg CAAX-LgBiT or 0.5 μg Endofin-LgBiT with 0.1 μg or 0.5 μg Nb37-SmBiT, respectively, with 0.8 µg pcDNA3.1 added to the former to equalize DNA content.
(§2) All NanoBiT and NanoBRET readings were obtained in a Flexstation 3 plate reader. […] Readings were normalized to well baseline and then to average vehicle-induced signal to establish the agonist-induced effect. AUCs from response curves were calculated for each agonist concentration and fitted to four-parameter curves using Prism 9 (GraphPad). […]

SNAP-tagged human GLP-1R = SNAP-tagged human GLP-1R (Homo sapiens, UniProt P43220); test: DERET internalization assay, INS-1 832/3 SNAP-GLP-1R cells; assay type: cell-based; details: non-cognate agonist GIP
SNAP-tagged human GIPR [2] = test: Colocalization with Rab5-Venus, SNAP-GIPR; assay type: cell-based; details: 100 nM GIP
From the text: To determine the intracellular destination of internalized GLP-1Rs/GIPRs more precisely, we performed concentration response bystander NanoBRET assays using C-terminal NanoLuc-fused SNAP-tagged GLP-1R vs GIPR and either KRAS-Venus (plasma membrane) or Rab5-Venus (early endosome) co-expressed transiently in INS-1 832/3 cells (Fig. 2).

GIPR-NanoLuc = test: Mini-Gs-Venus recruitment NanoBRET, GIPR; assay type: cell-based; details: 100 nM, n = 4
Method: Mini-Gs-Venus was a gift from Prof. Nevin Lambert, Augusta University, USA. INS-1 832/3 GLP-1R KO or GIPR KO cells were seeded in 12-well plates and co-transfected with 0.5 µg mini-Gs-Venus and either 0.5 µg GLP-1R- or GIPR-NanoLuc, respectively.
All NanoBiT and NanoBRET readings were obtained in a Flexstation 3 plate reader. Briefly, 24 hours after transfection, cells were detached, resuspended in NanoGlo Live Cell Reagent (Promega) with furimazine (1:20 dilution) and seeded into white 96-well half-area plates. […] Readings were normalized to well baseline and then to average vehicle-induced signal to establish the agonist-induced effect. AUCs from response curves were calculated for each agonist concentration and fitted to four-parameter curves using Prism 9 (GraphPad).
Figure 5. Beta cell GLP-1R vs GIPR G protein subtype and β-arrestin 2 recruitment characteristics. (A) Kinetics of Gαs, Gαq, Gαi, and β-arrestin 2 recruitment to the GLP-1R assessed by NanoBiT complementation assay in INS-1 832/3 GLP-1R KO cells transiently expressing GLP-1R-SmBiT and the corresponding mini-G protein subtype or β-arrestin 2. […] (B) Kinetics of Gαs, Gαq, Gαi, and β-arrestin 2 recruitment to the GIPR assessed by NanoBiT complementation assay in INS-1 832/3 GIPR KO cells transiently expressing GIPR-SmBiT and the corresponding mini-G protein subtype or β-arrestin 2. […]

SNAP-tagged human GIPR [3] = test: DERET internalization assay, INS-1 832/3 SNAP-GIPR cells; assay type: cell-based; details: non-cognate agonist GLP-1, or both agonists combined
Method: The diffusion-enhanced resonance energy transfer (DERET) assay was performed as previously described ([21]). The INS-1 832/3 SNAP-GLP-1R or SNAP-GIPR cells were labeled in suspension with Lumi4-Tb (40 nM) for 30 minutes in complete media. After washing, cells were resuspended in HBSS containing 24 µM fluorescein and dispensed into 96-well white plates. A baseline read was serially recorded over 5 minutes using a Flexstation 3 instrument at 37 °C in time-resolved fluorescence resonance energy transfer (TR-FRET) mode using the following settings: λex 340 nm, λem 520 and 620 nm, auto-cutoff, delay 400 µs, integration time 1500 µs. Ligands were then added, after which signal was repeatedly recorded for 30 minutes. Fluorescence signals were expressed ratiometrically after first subtracting signal from wells containing 24 µM fluorescein but no cells. Internalization was quantified as area under the curve (AUC) relative to individual well baseline.
Note that surface expression levels of SNAP-GLP-1R and SNAP-GIPR were similar within these 2 cell models (Supplemental Fig. 1A) ([32]).

[4] = system: INS-1 832/3 GLP-1R KO cells; test: Insulin secretion assay, GLP-1R KO cells; assay type: cell-based, rat; details: 100 nM, 11 mM glucose; n = 5
Method: At the end of the treatments, the supernatant containing the secreted insulin was collected, centrifuged at 1000g for 3 minutes, and transferred to a fresh tube. To determine total insulin content, cells were lysed using KRBH buffer + 1% w/v BSA + 1% v/v Triton X-100 (Sigma). The lysates were sonicated 3 × 10 seconds in a water bath sonicator and centrifuged at 10 000g for 10 minutes, and the supernatants collected. The samples were stored at −20 °C until the insulin concentration was determined using an Insulin Ultra-Sensitive HTRF Assay kit (62IN2PEG, Cisbio, Codolet, France) according to the manufacturer's instructions.
Figure 7. Functional analysis of GLP-1R vs GIPR signaling in beta cells. […] Data are mean ± SEM, compared by paired t tests; *P < .05; ns, nonsignificant.

SNAP-GLP-1R = test: Nb37 bystander NanoBiT, plasma membrane (CAAX), GLP-1R; assay type: cell-based, human; details: 30-minute AUC, n = 4
From the text: as §1, §2

Sequence of SNAP-tagged human GLP-1R (P43220 24-463): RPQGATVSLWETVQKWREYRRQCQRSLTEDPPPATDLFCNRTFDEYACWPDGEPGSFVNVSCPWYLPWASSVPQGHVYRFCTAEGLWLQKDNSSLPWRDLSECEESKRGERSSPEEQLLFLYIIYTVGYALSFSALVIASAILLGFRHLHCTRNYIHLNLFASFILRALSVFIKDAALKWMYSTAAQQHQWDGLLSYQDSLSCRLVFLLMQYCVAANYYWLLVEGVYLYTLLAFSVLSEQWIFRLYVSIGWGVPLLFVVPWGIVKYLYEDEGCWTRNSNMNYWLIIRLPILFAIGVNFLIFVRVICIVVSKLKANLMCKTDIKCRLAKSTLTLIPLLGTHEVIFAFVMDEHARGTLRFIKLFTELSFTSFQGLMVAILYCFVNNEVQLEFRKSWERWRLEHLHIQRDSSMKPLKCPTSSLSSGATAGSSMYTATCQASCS

Substance	GIPR diffusion (RICS) upon stimulation (SNAP-tagged human GIPR [1])	Recruitment of Nb37 to active GIPRs vs GLP-1Rs within the plasma membrane (SNAP-GIPR)	GLP-1R internalization (SNAP-tagged human GLP-1R)	Localization of the fraction of internalized GIPRs (SNAP-tagged human GIPR [2])	SNAP-GIPR localization (SNAP-tagged human GIPR [2])	Gαs recruitment to the GIPR compared to the GLP-1R (GIPR-NanoLuc)	GIPR internalization (SNAP-tagged human GIPR [3])	Insulin secretion response in GLP-1R KO cells [4]	Recruitment of Nb37 to active GLP-1Rs vs GIPRs within the plasma membrane (SNAP-GLP-1R)
GIP(1-42)	marked slowing of diffusion	no significant differences	negligible	also localized to Rab5-Venus-positive endosomes	a sizable amount of SNAP-GIPR was still present at the plasma membrane	significantly reduced Gαs recruitment			
GLP-1(7-36)NH2							negligible	abolished	no significant differences
